Laboratory results reported in patent US8871680B2, “Herbicidal compositions comprising 4-amino-3-chloro-5-fluoro-6-(4-chloro-2-fluoro-3-methoxyphenyl) pyridine-2-carboxylic acid or a derivative thereof and a di-methoxy-pyrimidine and derivatives thereof” (Dow AgroSciences LLC, priority 2012, dated 2014).

Key:
LEFCH = test: Postemergence foliar-applied weed control, direct seeded rice (greenhouse); type: in vivo, Leptochloa chinensis (L.) Nees
Excerpt: (§1) Seeds or nutlets of the desired test plant species were planted in a soil matrix prepared by mixing a loam or sandy loam soil (e.g., 28.6 percent silt, 18.8 percent clay, and 52.6 percent sand, with a pH of about 5.8 and an organic matter content of about 1.8 percent) and calcareous grit in an 80 to 20 ratio. The soil matrix was contained in plastic pots with a volume of 1 quart and a surface area of 83.6 square centimeters (cm^2). When required to ensure good germination and healthy plants, a fungicide treatment and/or other chemical or physical treatment was applied. The plants were grown for 8-22 days in a greenhouse with an approximate 14 hr photoperiod which was maintained at about 29° C. during the day and 26° C. during the night. Nutrients (Peters Excel® 15-5-15 5-Ca 2-Mg and iron chelate) were applied in the irrigation solution as needed and water was added on a regular basis. Supplemental lighting was provided with overhead metal halide 1000-Watt lamps as necessary. The plants were employed for testing when they reached the first through fourth true leaf stage.
Treatments consisted of the acid or esters of 4-amino-3-chloro-5-fluoro-6-(4-chloro-2-fluoro-3-methoxy-phenyl)pyridine-2-carboxylic acid (Compound A), each formulated as an SC (suspension concentrate), and various herbicidal components alone and in combination. Forms of compound A were applied on an acid equivalent basis.
Other herbicidal components were applied on an active ingredient basis and included the dimethoxy-pyrimidine acid acetolactate synthase (ALS)-inhibiting herbicides bispyribac-sodium formulated as Regiment® 80WP, pyribenzoxim (technical grade material), pyriminobac-methyl formulated as Hie-Clean® 1.2% GR dissolved in water, and pyriftalid (technical grade material).
(§2) Treatment requirements were calculated based upon the rates being tested, the concentration of active ingredient or acid equivalent in the formulation, and a 12 mL application volume at a rate of 187 L/ha.
For treatments comprised of formulated compounds, measured amounts of compounds were placed individually in 25 mL glass vials and diluted in a volume of 1.25% (v/v) Agri-Dex® crop oil concentrated to obtain 12× stock solutions. […] Application solutions were prepared by adding an appropriate amount of each stock solution (e.g., 1 mL) and diluted to the appropriate final concentrations with the addition of 10 mL of an aqueous mixture of 1.25% (v/v) crop oil concentrate so that the final spray solutions contained 1.25+/−0.005% (v/v) crop oil concentrate.
For treatments comprised of technical compounds, weighed amounts can be placed individually in 25 mL glass vials and dissolved in a volume of 97:3 v/v acetone/DMSO to obtain 12× stock solutions. […] Application solutions can be prepared by adding an appropriate amount of each stock solution (e.g., 1 mL) and diluted to the appropriate final concentrations with the addition of 10 mL of an aqueous mixture of 1.5% (v/v) crop oil concentrate so that the final spray solutions contain 1.25% (v/v) crop oil concentrate. When technical materials are used, the concentrated stock solutions can be added to the spray solutions so that the final acetone and DMSO concentrations of the application solutions are 16.2% and 0.5%, respectively.
(§3) For treatments comprised of formulated and technical compounds, weighed amounts of the technical materials were placed individually in 25 mL glass vials and dissolved in a volume of 97:3 v/v acetone/DMSO to obtain 12× stock solutions, and measured amounts of the formulated compounds were placed individually in 25 mL glass vials and diluted in a volume of 1.5% (v/v) crop oil concentrate or water to obtain 12× stock solutions. […]

BRAPP = test: as above; type: in vivo, Brachiaria platyphylla (Griseb.) Nash
Excerpt: as §1, with “stage. […]” for “stage.”
as §2
(§4) For treatments comprised of formulated compounds, measured amounts of compounds were placed individually in 25 mL glass vials and diluted in a volume of 1.25% (v/v) Agri-Dex® crop oil concentrated to obtain 12× stock solutions. […]
as §3

CYPRO = test: In-water applied weed control, transplanted paddy rice (greenhouse); type: in vivo, Cyperus rotundus L.
Experimental: (§5) Weed seeds or nutlets of the desired test plant species were planted in puddled soil (mud) prepared by mixing a shredded, non-sterilized mineral soil (50.5 percent silt, 25.5 percent clay, and 24 percent sand, with a pH of about 7.6 and an organic matter content of about 2.9 percent) and water at a 1:1 volumetric ratio. The prepared mud was dispensed in 365 mL aliquots into 16-ounce (oz.) non-perforated plastic pots with a surface area of 86.59 square centimeters (cm^2) leaving a headspace of 3 centimeters (cm) in each pot. Mud was allowed to dry overnight prior to planting or transplanting. Rice seeds were planted in Sun Gro MetroMix® 306 planting mixture, which typically has a pH of 6.0 to 6.8 and an organic matter content of about 30 percent, in plastic plug trays. Seedlings at the second or third leaf stage of growth were transplanted into 860 mL of mud contained in 32-oz. non-perforated plastic pots with a surface area of 86.59 cm^2 4 days prior to herbicide application. The paddy was created by filling the headspace of the pots with 2.5 to 3 cm of water. When required to ensure good germination and healthy plants, a fungicide treatment and/or other chemical or physical treatment was applied. The plants were grown for 4-22 days in a greenhouse with an approximate 14 hr photoperiod which was maintained at about 29′C during the day and 26° C. during the night. Nutrients were added as Osmocote® (19:6:12, N:P:K+minor nutrients) at 2 g per 16-oz. pot and 4 g per 32-oz. pot. Water was added on a regular basis to maintain the paddy flood, and supplemental lighting was provided with overhead metal halide 1000-Watt lamps as necessary. The plants were employed for testing when they reached the first through fourth true leaf stage.
(§6) Treatments consisted of the acid or esters of 4-amino-3-chloro-5-fluoro-6-(4-chloro-2-fluoro-3-methoxy-phenyl)pyridine-2-carboxylic acid (compound A) each formulated as an SC and various herbicidal components alone and in combination. Forms of compound A were applied on an acid equivalent basis.
(§7) Other herbicidal components were applied on an active ingredient basis and included the dimethoxy-pyrimidine acid acetolactate synthase (ALS)-inhibiting herbicides bispyribac-sodium formulated as Regiment® 80 WP, pyriminobac-methyl formulated as Hie Clean®, and pyriftalid (technical grade material).
(§8) Treatment requirements for each compound or herbicidal component were calculated based upon the rates being tested, the concentration of active ingredient or acid equivalent in the formulation, an application volume of 2 mL per component per pot, and an application area of 86.59 cm^2 per pot.
(§9) For formulated compounds, a measured amount was placed in an individual 100 or 200 mL glass vial and was dissolved in a volume of 1.25% (v/v) Agri-Dex® crop oil concentrate to obtain application solutions.
(§10) For technical grade compounds, a weighed amount was placed in an individual 100 to 200 mL glass vial and was dissolved in a volume of acetone to obtain concentrated stock solutions. […] The concentrated stock solutions obtained were diluted with an equivalent volume of an aqueous mixture containing 2.5% (v/v) crop oil concentrate so that the final application solutions contained 1.25% (v/v) crop oil concentrate.
(§11) Applications were made by injecting with a pipetter appropriate amounts of the application solutions, individually and sequentially, into the aqueous layer of the paddy.
(§12) Control plants were treated in the same manner with the solvent blank. Applications were made so that all treated plant material received the same concentrations of acetone and crop oil concentrate.
(§13) The treated plants and control plants were placed in a greenhouse as described above and water was added as needed to maintain a paddy flood. […]

FIMMI = test: as above; type: in vivo, Fimbristylis miliacea (L.) Vahl
Experimental: as §5, §6, §7, §8, §9, §10, §11, §12, §13

ECHCG = test: Postemergence foliar-applied weed control, direct seeded rice (greenhouse); type: in vivo, Echinochloa crusgalli (L.) Beauv.; details: 70 gai/ha
Excerpt: as §1, with “stage. […]” for “stage.”
as §2, §4, §3

ECHOR = test: In-water applied weed control, transplanted paddy rice (greenhouse); type: in vivo, Echinochloa oryzoides (Ard.) Fritsch
Experimental: as §5, §6, §7, §8, §9, §10, §11
Control plants were treated in the same manner with the solvent blank. […]

SCPMA = test: as above; type: in vivo, Bolboschoenus maritimus (L.) Palla; details: 70 gae/ha
Experimental: as §5, §6, §7, §8, §9, §10, §11, §12, §13

With `COc1cc(OC)nc(Sc2cccc3c2C(=O)OC3C)n1` (centres unmarked) [Pyriftalid, 7-[(4,6-dimethoxy-2-pyrimidinyl)thio]-3-methyl-1 (3H)-isobenzofuranone, reference compound] the “Visual Weed Control (%)-22 DAA LEFCH Obs” value (LEFCH; 45 gai/ha) was 0%, the “Visual Weed Control (%)-22 DAA LEFCH Obs” value (LEFCH; 90 gai/ha) was 0% and the “Visual Weed Control (%)-22 DAA BRAPP Obs” value (BRAPP; 45 gai/ha) was 0%. The “Visual Weed Control (%)-22 DAA BRAPP Obs” value (BRAPP; 90 gai/ha) was 0%, the “Visual Weed Control (%)-21 DAA CYPRO Obs” value (CYPRO; 45 gai/ha, Table 12) was 0% and the “Visual Weed Control (%)-21 DAA CYPRO Obs” value (CYPRO; 45 gai/ha, Table 13) was 0%. The “Visual Weed Control (%)-21 DAA CYPRO Obs” value (CYPRO; 90 gai/ha, Table 12) was 0%, the “Visual Weed Control (%)-21 DAA CYPRO Obs” value (CYPRO; 90 gai/ha, Table 13) was 0% and the “Visual Weed Control (%)-21 DAA FIMMI Obs” value (FIMMI; 45 gai/ha) was 50%. For the same molecule, the “Visual Weed Control (%)-21 DAA FIMMI Obs” value (FIMMI; 90 gai/ha) was 30%.

`COc1cc(OC)nc(Oc2cccc(Oc3nc(OC)cc(OC)n3)c2C(=O)ON=C(c2ccccc2)c2ccccc2)n1` [Pyribenzoxim, diphenylmethanone O-[2,6-bis[(4,6-dimethoxy-2-pyrimidinyl)oxy]benzoyl]oxime, reference compound] was tested, and the “Visual Weed Control (%) - 20 DAA ECHCG Obs” value (ECHCG) was 85%.

With `CCCCOC(=O)c1nc(-c2ccc(Cl)c(OC)c2F)c(F)c(N)c1Cl` [Compound A n-Butyl Ester] the “Visual Weed Control (%)-20 DAA ECHOR Obs” value (ECHOR; 35 gae/ha) was 35%, the “Visual Weed Control (%)-20 DAA ECHOR Obs” value (ECHOR; 70 gae/ha) was 40% and the “Visual Weed Control (%)-20 DAA SCPMA Obs” value (SCPMA) was 0%.
